Among the test systems are A498 renal; HL-60(TB) leukemia; CCRF-CEM leukemia; SF-295 CNS; SN12C renal; MOLT-4 leukemia; ACHN renal; OVCAR-3 ovarian; SW-620 colon; SK-MEL-28 melanoma; IGROV1 ovarian; UO-31 renal; HOP-92 NSCLC; HOP-62 NSCLC; SK-OV-3 ovarian; HCT-15 colon; OVCAR-8 ovarian; SNB-75 CNS; SNB-19 CNS; NCI-H522 lung.
Common to all, as to assay: inhibition of tumour cell growth, NCI panel, 48 h

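Growth conditions: 96-well plates. Treatment: test compound, 48 hours, 5 concentrations. Analysis: linear interpolation between bracketing concentrations; unreached endpoints set to highest concentration. The concentration for full growth arrest is given as TGI.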

Take `CC1CCCCNC1=S` (configuration not stated): the TGI with A498 renal, in the assay with HL-60(TB) leukemia, in the assay with CCRF-CEM leukemia, in the assay on SF-295 CNS, with SN12C renal and in the assay with MOLT-4 leukemia was > 10 µM in each case. Besides, the TGI in the assay with ACHN renal, in the assay on OVCAR-3 ovarian, with SW-620 colon, in the assay with SK-MEL-28 melanoma, in the assay on IGROV1 ovarian and in the assay with UO-31 renal was > 10 µM in each case. In addition, the TGI with HOP-92 NSCLC, with HOP-62 NSCLC, in the assay with SK-OV-3 ovarian, in the assay on HCT-15 colon, with OVCAR-8 ovarian and with SNB-75 CNS was > 10 µM each time. The TGI in the assay on SNB-19 CNS is > 10 µM.

As for `COCCCNc1nc(N)c(C#N)c(C#N)c1C#N`, the TGI was > 10 µM with A498 renal; > 10 µM in the assay with HL-60(TB) leukemia; 6.67 µM in the assay on CCRF-CEM leukemia; > 10 µM in the assay with SF-295 CNS; > 10 µM in the assay with SN12C renal; > 10 µM with MOLT-4 leukemia. The TGI with NCI-H522 lung, in the assay on ACHN renal, with OVCAR-3 ovarian, with SW-620 colon, in the assay on SK-MEL-28 melanoma and in the assay with IGROV1 ovarian was > 10 µM each time. In addition, the TGI in the assay on UO-31 renal, in the assay with HOP-62 NSCLC, in the assay with SK-OV-3 ovarian, with HCT-15 colon, with OVCAR-8 ovarian and with SNB-75 CNS was > 10 µM in each case. Further, in the assay on SNB-19 CNS, the TGI is > 10 µM.

On to `CC(=O)Nc1ccc(/C=C/c2ccc(NC(=O)Nc3ccc(/C=C/c4ccc(NC(C)=O)cc4S(=O)(=O)O)c(S(=O)(=O)O)c3)cc2S(=O)(=O)O)c(S(=O)(=O)O)c1`, for which the TGI in the assay with A498 renal, with HL-60(TB) leukemia, with CCRF-CEM leukemia, in the assay on SF-295 CNS, with SN12C renal and in the assay with MOLT-4 leukemia was > 100 µM throughout. Moreover, the TGI in the assay on NCI-H522 lung, in the assay with OVCAR-3 ovarian, in the assay on SW-620 colon, in the assay on SK-MEL-28 melanoma, in the assay with IGROV1 ovarian and with UO-31 renal was > 100 µM in each case. Besides, the TGI was > 75.6 µM in the assay on HOP-92 NSCLC; > 100 µM in the assay with HOP-62 NSCLC; > 100 µM in the assay on SK-OV-3 ovarian; > 100 µM in the assay on HCT-15 colon; > 100 µM with OVCAR-8 ovarian; > 100 µM in the assay with SNB-75 CNS. For the same compound, in the assay on SNB-19 CNS, the TGI is > 100 µM.

As for `CCOC(=O)Cn1c(=O)ccn(COCCO)c1=O`, the TGI in the assay with A498 renal, in the assay on HL-60(TB) leukemia, in the assay with CCRF-CEM leukemia, in the assay with SN12C renal, in the assay on MOLT-4 leukemia and in the assay on NCI-H522 lung was > 100 µM in each case. The TGI in the assay on ACHN renal, in the assay on OVCAR-3 ovarian, in the assay with SW-620 colon, with SK-MEL-28 melanoma, with IGROV1 ovarian and in the assay with UO-31 renal was > 100 µM throughout. Also, the TGI with HOP-92 NSCLC, in the assay on HOP-62 NSCLC, in the assay on HCT-15 colon, in the assay on OVCAR-8 ovarian, in the assay on SNB-75 CNS and with SNB-19 CNS was > 100 µM in each case.

For the compound `Clc1ccc(C[P+](c2ccccc2)(c2ccccc2)c2ccccc2)c(Cl)c1`, the TGI worked out at 30.6 µM in the assay with A498 renal; 3.25 µM in the assay with HL-60(TB) leukemia; 21.3 µM in the assay on CCRF-CEM leukemia; 12.3 µM in the assay on SF-295 CNS; 12.4 µM in the assay on SN12C renal; 18.1 µM in the assay with MOLT-4 leukemia. The TGI in the assay with NCI-H522 lung is 7.18 µM; in the assay on ACHN renal, 47.6 µM; in the assay on OVCAR-3 ovarian it was 13.8 µM; in the assay with SW-620 colon, 21.4 µM; in the assay on SK-MEL-28 melanoma, 20.1 µM; in the assay with IGROV1 ovarian, 15.6 µM. For the same compound, the TGI is 5.76 µM in the assay on HOP-92 NSCLC; 27.9 µM with HOP-62 NSCLC; 24.4 µM with SK-OV-3 ovarian; > 100 µM with HCT-15 colon; 20.1 µM in the assay with OVCAR-8 ovarian; 7.54 µM in the assay with SNB-75 CNS. The compound also gave a TGI in the assay with SNB-19 CNS of 13 µM.

Take `CCC(C)NC1=NCC(C)S1` (configuration not stated): the TGI in the assay with A498 renal, in the assay with HL-60(TB) leukemia, in the assay on CCRF-CEM leukemia, with SF-295 CNS, with SN12C renal and in the assay with MOLT-4 leukemia was > 100 µM throughout. Besides, the TGI in the assay with NCI-H522 lung, in the assay on ACHN renal, with OVCAR-3 ovarian, with SW-620 colon, in the assay on SK-MEL-28 melanoma and in the assay on IGROV1 ovarian was > 100 µM each time. Further, the TGI in the assay with UO-31 renal, in the assay on HOP-92 NSCLC, in the assay on HOP-62 NSCLC, with SK-OV-3 ovarian, with HCT-15 colon and in the assay with SNB-75 CNS was > 100 µM in each case. Further, the TGI with SNB-19 CNS was > 100 µM.

As to `NNC(=O)c1c(SCc2ccccc2)nc2c3ccccc3ccn12`, the TGI in the assay with A498 renal was 46.6 µM; in the assay on HL-60(TB) leukemia, 29.4 µM; in the assay with CCRF-CEM leukemia, 22.1 µM; in the assay with SF-295 CNS, > 100 µM; with SN12C renal, > 100 µM; with MOLT-4 leukemia, 41.3 µM. Also, the TGI is 37.3 µM in the assay with NCI-H522 lung; > 100 µM in the assay on ACHN renal; 16 µM in the assay with OVCAR-3 ovarian; > 100 µM in the assay on SW-620 colon; > 100 µM in the assay with SK-MEL-28 melanoma; 51.2 µM with IGROV1 ovarian. For the same compound, the TGI in the assay with UO-31 renal was 66.5 µM; with HOP-92 NSCLC it was 68.5 µM; with HOP-62 NSCLC, > 100 µM; with SK-OV-3 ovarian, > 100 µM; in the assay with HCT-15 colon, 41.2 µM; with OVCAR-8 ovarian it was > 100 µM. Also, the TGI in the assay with SNB-19 CNS was > 100 µM.
